Earlier results in publication PMC3530638 (Biochimica et biophysica acta, 2012).

Test system: B. anthracis
Conditions: cited from earlier work

Question: Which MIC does the source give for `CCCC1c2ccccc2C=NN1C(=O)/C=C/c1cc(Cc2cnc(N)nc2N)cc(OC)c1OC` (stereo not shown) [n-propyl, (E)-3-[5-(2,4-diaminopyrimidin-5-ylmethyl)-2,3-dimethoxyphenyl]-1-(1-propyl-1h-phthalazin-2-yl)propenone] here?
Answer: 1 to 3 µg/mL
